In brackets after ≈: the same amount, converted by molar mass. Several values for one entry are separate records, joined by “and”; a condition that tells them apart may be missing. Equal values may be shown once. Entries after “also recorded” stand apart in the source; their conditions may differ. Read-outs that look alike come from different tables or passages of the source. Marks after values point to notes of the source that are not given here. One block for each compound: values may come before it.
How the values were obtained:
[1] = molecular target: T1, Rlig1-AMP (Homo sapiens, UniProt Q8N999); test: FRET-based high-throughput screening of inhibitors for Rlig1-AMP; format: biochemical; conditions: sheet HTS hits; for 1-D Distance: difference of raw data w/o and w enzyme; for Raw data [w Enyzm]: with enzyme; for Raw data [w/o Enzym]: without enzyme; for 1-D Distance.npi: MedChemExpress library
T1 construct: made in house; host or cells: E. coli BL21 (DE3), pET15b-Rlig1
T1 sequence (Q8N999 whole entry): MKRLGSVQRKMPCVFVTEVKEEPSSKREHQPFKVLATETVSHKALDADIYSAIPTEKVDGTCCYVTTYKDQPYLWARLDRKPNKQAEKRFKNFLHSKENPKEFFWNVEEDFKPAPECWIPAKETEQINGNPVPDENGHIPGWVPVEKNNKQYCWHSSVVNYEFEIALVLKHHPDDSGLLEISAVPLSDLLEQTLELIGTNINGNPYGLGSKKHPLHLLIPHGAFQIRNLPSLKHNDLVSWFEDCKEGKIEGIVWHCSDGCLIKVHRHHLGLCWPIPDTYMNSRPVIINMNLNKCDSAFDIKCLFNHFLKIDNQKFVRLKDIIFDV

[2] = ref MedChemExpress, cited from earlier work; for solubility, DMSO: in DMSO; for solubility, H2O: in H2O
[3] = molecular target: T1, Rlig1-AMP; test: Radioactive RNA ligation assay (hit validation, 10 µM test and IC50 determination); format: biochemical; conditions: for IC50: n = 3
[4] = Cell viability assay of HEK293 cells treated with inhibitors and menadione; format: cell-based, human; conditions: human, HEK293 cells, w/o Menadione; for viability at 7.5 µM: 7.5 µM compound; for viability at 15 µM: 15 µM compound; for viability at 30 µM: 30 µM compound; for viability at 60 µM: 60 µM compound
[5] = test system: HEK293 cells; test: as above; format: cell-based, human; conditions: for Mean Diff, (Predicted (LS) mean diff,) w/o menadione - w menadione: 2 way ANOVA, Šídák's multiple comparisons test, normalised viability
[6] = in vitro; conditions: human
[7] = test system: HEK293 cells; test: Cell viability assay of HEK293 cells treated with inhibitors (CellTiter-Glo)
[8] = log(inhibitor) vs. response, variable slope (four parameters)
[9] = 20240508 plate 012, DMSO Ko no Mendione = 100
[10] = 20240508 plate 013, DMSO Ko no Mendione = 100
[11] = 20240515 plate 014, DMSO Ko no Mendione = 100
[12] = 20240515 plate 015, DMSO Ko no Mendione = 100

SMILES: COC(=O)c1cc(OC)c2c(c1-c1c(C(=O)OC)cc(OC)c3c1OCO3)OCO2 [Bifendate]
1-D Distance [1]: 1790
Raw data [w Enyzm] [1]: 9076
Raw data [w/o Enzym] [1]: 10866
solubility, DMSO [2]: 50 mg/mL (≈ 120 mM)
solubility, H2O [2]: 1 mg/mL (≈ 2.39 mM)

SMILES: CCCCCCCCCCCCCCCC[n+]1ccccc1.O.[Cl-] [Cetylpyridinium (chloride monohydrate)]
solubility, DMSO [2]: 20 mg/mL
solubility, H2O [2]: ≥ 100 mg/mL

SMILES: CCCCCCCCCCCCCCCC[n+]1ccccc1.[Cl-] [Cetylpyridinium (chloride)]
solubility, DMSO [2]: DMSO : 100 mg/mL (294.13 mM; Need ultrasonic); H2O : 100 mg/mL (294.13 mM; Need ultrasonic)
solubility, H2O [2]: DMSO : 100 mg/mL (294.13 mM; Need ultrasonic); H2O : 100 mg/mL (294.13 mM; Need ultrasonic)

SMILES: Cc1cc(Nc2ccc(NC(=O)c3ccc(Nc4ncnc5ccccc45)cc3)cc2)nc(N)n1 [Compound 45]
inhibition of Rlig1-AMP ligation (urea-PAGE) ([3]; 10 μM compound, 500 nM Rlig1-AMP, 20 min 37 °C): Ligation was inhibited; also recorded: inhibited ligase activity
HillSlope (best-fit value) ([3]; four-parameter fit): 4.095
Span (best-fit value) ([3]; four-parameter fit): 90.88
IC50 ([3]; four-parameter fit, read-out: IC50 (best-fit value)): 7.02 µM
inhibition at 30 µM ([3]; log Compound [µM] 1.47712, replicates I-III, read-out: percentage inhibition (dose response curve for IC50)): 100%
LogIC50 (best-fit value) ([3]; log of µM, four-parameter fit): 0.8461
Bottom (best-fit value) [3, 8]: 7.303
Top (best-fit value) [3, 8]: 98.18
IC50 ([3]; radioactive ligation assay, 500 nM Rlig1-AMP, 20 min 37 °C, read-out: IC50): 7.02 µM
viability at 7.5 µM [4, 9]: 99.2%
viability at 7.5 µM [4, 10]: 99.9%
viability at 7.5 µM [4, 11]: 95.1%
viability at 7.5 µM [4, 12]: 102%
viability at 15 µM [4, 9]: 95.2%
viability at 15 µM [4, 10]: 92.3%
viability at 15 µM [4, 11]: 81.5%
viability at 15 µM [4, 12]: 84.3%
viability at 30 µM [4, 9]: 80.9%
viability at 30 µM [4, 10]: 93.3%
viability at 30 µM [4, 11]: 67.5%
viability at 30 µM [4, 12]: 77.5%
viability at 60 µM [4, 11]: 61.3%
viability at 60 µM [4, 12]: 65.6%
Mean Diff, (Predicted (LS) mean diff,) w/o menadione - w menadione ([5]; 7.5 µM compound): 24.88
Cell viability raw signal, technical replicates ([5]; 7.5 µM compound, w Menadione (40µM), 20240508 plate 012): 16292 and 19945 and 19668 and 21930
Cell viability raw signal, technical replicates ([5]; 7.5 µM compound, w Menadione (40µM), 20240508 plate 013): 13213 and 13818 and 17967 and 18789
Cell viability raw signal, technical replicates ([5]; 7.5 µM compound, w Menadione (40µM), 20240515 plate 014): 24555 and 24471 and 26313 and 33654
Cell viability raw signal, technical replicates ([5]; 7.5 µM compound, w Menadione (40µM), 20240515 plate 015): 35092 and 33991 and 36306 and 39027
Cell viability raw signal, technical replicates ([5]; 7.5 µM compound, w/o Menadione, 20240508 plate 012): 424180 and 398710 and 420300 and 419520
Cell viability raw signal, technical replicates ([5]; 7.5 µM compound, w/o Menadione, 20240508 plate 013): 399000 and 385630 and 399650 and 394170
Cell viability raw signal, technical replicates ([5]; 7.5 µM compound, w/o Menadione, 20240515 plate 014): 359950 and 358800 and 374740 and 459430
Cell viability raw signal, technical replicates ([5]; 7.5 µM compound, w/o Menadione, 20240515 plate 015): 358750 and 400730 and 451820 and 450580
Mean Diff, (Predicted (LS) mean diff,) w/o menadione - w menadione ([5]; 15 µM compound): 16.86
Cell viability raw signal, technical replicates ([5]; 15 µM compound, w Menadione (40µM), 20240508 plate 012): 17222 and 18766 and 16741 and 22933
Cell viability raw signal, technical replicates ([5]; 15 µM compound, w Menadione (40µM), 20240508 plate 013): 19848 and 20626 and 16969 and 23253
Cell viability raw signal, technical replicates ([5]; 15 µM compound, w Menadione (40µM), 20240515 plate 014): 32272 and 27116 and 27955 and 28425
Cell viability raw signal, technical replicates ([5]; 15 µM compound, w Menadione (40µM), 20240515 plate 015): 25226 and 26073 and 29252 and 24387
Cell viability raw signal, technical replicates ([5]; 15 µM compound, w/o Menadione, 20240508 plate 012): 374870 and 367440 and 401070 and 451770
Mean Diff, (Predicted (LS) mean diff,) w/o menadione - w menadione ([5]; 30 µM compound): 21.74
Cell viability raw signal, technical replicates ([5]; 30 µM compound, w Menadione (40µM), 20240508 plate 012): 97659* and 121480* and 17759 and 18485
Cell viability raw signal, technical replicates ([5]; 30 µM compound, w Menadione (40µM), 20240508 plate 013): 90653* and 101750* and 11751 and 20016
Cell viability raw signal, technical replicates ([5]; 30 µM compound, w Menadione (40µM), 20240515 plate 014): 23460 and 20263 and 23532 and 25800
Cell viability raw signal, technical replicates ([5]; 30 µM compound, w Menadione (40µM), 20240515 plate 015): 18936 and 15616 and 21631 and 19990
Cell viability raw signal, technical replicates ([5]; 30 µM compound, w/o Menadione, 20240508 plate 012): 326400 and 344550 and 324690 and 360730
Cell viability raw signal, technical replicates ([5]; 30 µM compound, w/o Menadione, 20240508 plate 013): 380950 and 384250 and 337920 and 371050
Cell viability raw signal, technical replicates ([5]; 30 µM compound, w/o Menadione, 20240515 plate 014): 277620 and 270780 and 277750 and 275770
Cell viability raw signal, technical replicates ([5]; 30 µM compound, w/o Menadione, 20240515 plate 015): 297120 and 296520 and 307370 and 366230
Mean Diff, (Predicted (LS) mean diff,) w/o menadione - w menadione ([5]; 60 µM compound): 16.46
Cell viability raw signal, technical replicates ([5]; 60 µM compound, w Menadione (40µM), 20240515 plate 014): 18908 and 18178 and 17095 and 16101
Cell viability raw signal, technical replicates ([5]; 60 µM compound, w Menadione (40µM), 20240515 plate 015): 15825 and 18398 and 15296 and 15572
Cell viability raw signal, technical replicates ([5]; 60 µM compound, w/o Menadione, 20240515 plate 014): 265840 and 239610 and 250590 and 244440
Cell viability raw signal, technical replicates ([5]; 60 µM compound, w/o Menadione, 20240515 plate 015): 267940 and 266670 and 268950 and 268790
viability at 24 h, 0.234375 µM [6]: 110%
viability at 24 h, 0.46875 µM [6]: 101%
viability at 24 h, 0.9375 µM [6]: 105%
viability at 24 h, 1.875 µM [6]: 100%
viability at 24 h, 3.75 µM [6]: 103%
viability at 24 h, 7.5 µM [6]: 97.1%
viability at 24 h, 15 µM [6]: 90.2%
viability at 24 h, 30 µM [6]: 88.8%
cytotoxicity (in words) ([7]; HEK293, 24 h, up to 30 μM): no detectable cytotoxicity
IC50 (Figure 3D: EC50 values for plot; log(inhibitor) vs. response -- Variable slope (four parameters)) ([7]; HEK293 cell viability, fit per plate (3 plates, 4 technical replicates each), highest tested concentration 30 µM): 336.896 µM and 119.897 µM and 368.238 µM
LogIC50 (log(inhibitor) vs. response -- Variable slope (four parameters)) ([7]; HEK293 cell viability, fit per plate (3 plates, 4 technical replicates each), log of [µM]): 2.5275 and 2.079 and 2.566
EC50 ([7]; Homo sapiens, HEK293, 24 h): > 30 µM

SMILES: COc1cccc2c1C(=O)c1c(O)c3c(c(O)c1C2=O)C[C@@](O)(C(C)=O)C[C@@H]3O[C@H]1C[C@H](N)[C@H](O)[C@H](C)O1.Cl [Daunorubicin (hydrochloride)]
1-D Distance.npi [1]: 94.9773
1-D Distance [1]: 667
Raw data [w Enyzm] [1]: 1522
Raw data [w/o Enzym] [1]: 2189
solubility, DMSO [2]: 50 mg/mL
solubility, H2O [2]: ≥ 34 mg/mL

SMILES: C[C@]12C=CC(=O)N[C@@H]1CC[C@@H]1[C@@H]2CC[C@]2(C)[C@@H](C(=O)Nc3cc(C(F)(F)F)ccc3C(F)(F)F)CC[C@@H]12 [Dutasteride]
1-D Distance [1]: 1706
Raw data [w Enyzm] [1]: 9054
Raw data [w/o Enzym] [1]: 10760
solubility, DMSO [2]: DMSO : 33.33 mg/mL (63.06 mM; Need ultrasonic)

1-D Distance [1]: 1388
Raw data [w Enyzm] [1]: 3742
Raw data [w/o Enzym] [1]: 5130
SMILES: CC1=NN(c2ccc(C)c(C)c2)C(=O)/C1=N\Nc1cccc(-c2cccc(C(=O)O)c2)c1O [Eltrombopag]
solubility, DMSO [2]: 8.33 mg/mL (≈ 18.8 mM)
solubility, H2O [2]: < 0.1 mg/mL

1-D Distance [1]: 1343
Raw data [w Enyzm] [1]: 9476
Raw data [w/o Enzym] [1]: 10819
SMILES: COC(=O)/C=C/c1ccc(O)c(O)c1 [Methyl caffeate]
solubility, DMSO [2]: DMSO : 33.33 mg/mL (171.64 mM; ultrasonic and warming and heat to 60°C)

SMILES: [N-]=[N+]=NCCOCCOCCOCCN(CCOCCOCCN)CCOCCOCCOCCN=[N+]=[N-] [N-(Amino-PEG2)-N-bis(PEG3-azide)]
1-D Distance.npi [1]: 72.3118
1-D Distance [1]: 1919
Raw data [w Enyzm] [1]: 9036
Raw data [w/o Enzym] [1]: 10955
solubility, DMSO [2]: DMSO : 100 mg/mL (181.60 mM; Need ultrasonic)

— article PMC11747885, “Potent inhibitors of the human RNA ligase Rlig1 highlights its role in RNA integrity maintenance under oxidative cellular stress” (Chemical Science, 2025)
